Values quoted from earlier work in patent publication US12107222B2, “Liquid electrolyte comprising organic carbonates and cyclic sulfoxides for applications in lithium secondary batteries” (Forschungszentrum Juelich GmbH, priority 2018, dated 2024).

How the values were obtained:
[1] = tested on: rat; conditions: in vivo
[2] = tested on: rabbit
[3] = tested on: human organism; conditions: classification in words
[4] = tested on: mouse
[5] = tested on: rat
[6] = tested on: rat; remark: listed apart in the source

Structure (SMILES) | LD50, rat, oral [1] | LD50, rabbit, dermal [2] | hazard classification [3] | also measured
CC1COC(=O)O1 (stereo not drawn) [Propylene carbonate] | LD50, rat, oral: >5,000 mg/kg | LD50, rabbit, dermal: >2,000 mg/kg^[2] | – | –
O=S1(=O)CCCO1 [1,3-propane sultone] | – | – | carcinogenic and toxic | –
CCC1COC(=O)O1 (stereo not drawn) [1,2-Butylene carbonate] | LD50, rat, oral: >5,000 mg/kg | LD50, rabbit, dermal: >2,000 mg/kg^[13] | – | –
[O-][S+]1CCCC1 [Tetrahydrothiophene-1-oxide] | – | – | – | LD50, mouse, intraperitoneal [4]: LD50, mouse, intraperitoneal: 3,500
O=C1OCCO1 [Ethylene carbonate] | – | – | – | LD50, rat, dermal [5]: LD50, rat, dermal: >2,000 mg/kg; LC50, rat, inhalative, 7 h [6]: LC50, rat, inhalative, 7 h: >1.268 mg/L^[12]
O=c1occo1 [Vinylene carbonate] | – | – | toxic on contact with the skin | –
